Results: patent publication US9901592B2 (priority 2008, dated 2018)
In brackets after ≈: the same amount, converted by molar mass. Several values for one entry are separate records, joined by “and”; a condition that tells them apart may be missing. Equal entries are not always repeated. Where two headings read alike, the source gives them in different places.

Legend:
S. pneumoniae [1] = test: mouse systemic infection model (PD50); type: in vivo
S. pyogenes 3029 = test: Intraperitoneal (IP) mouse infection model (ED50); type: in vivo; settings: Streptococcus pyogenes, MAC-R S. pyogenes 3029
S. pyogenes = test: microbe, parasite or virus in culture; type: cell-based; settings: for MIC: Streptococcus pyogenes
M. pneumoniae = test: microbe, parasite or virus in culture; type: cell-based; settings: Mycoplasmoides pneumoniae
S. pneumoniae [2] = test: microbe, parasite or virus in culture; type: cell-based
S. pneumoniae [3] = test: neutropenic mouse thigh infection; type: in vivo; settings: QD, PO
S. pneumoniae [4] = test: MIC of the strains of the mouse systemic infection model; type: cell-based; settings: Streptococcus pneumoniae
S. pneumoniae [5] = type: cell-based; settings: for Mutant selection frequencies: S. pneumoniae
[6] = S. pneumoniae (macrolide susceptible)

CC[C@H]1OC(=O)[C@H](C)C(=O)[C@H](C)[C@@H](O[C@@H]2O[C@H](C)C[C@H](N(C)C)[C@H]2O)[C@](C)(OC)C[C@@H](C)C(=O)[C@H](C)[C@H]2N(CCCCn3cnc(-c4cccnc4)c3)C(=O)O[C@]12C [TEL, telithromycin]
PD50 (S. pneumoniae [1]; [6]): 19.9 mg/kg | PD50 (S. pneumoniae [1]; S. pneumoniae (mefR)): 10.6 mg/kg | PD50 (S. pneumoniae [1]; S. pneumoniae serotype 19A): 5.7 mg/kg | ED50 (S. pyogenes 3029): > 150 mg/kg | strains with resistant clones / strains tested (S. pyogenes; S. pyogenes): 2/4 and 2/5 | MIC (S. pyogenes; read-out: Initial MIC, strain 237 Macrolide-R [LA mutation], parent): 0.06 µg/mL (≈ 0.0739 µM) | MIC (S. pyogenes; read-out: Initial MIC, strain 2011 Macrolide-R [mef(A)], parent): 0.5 µg/mL (≈ 0.616 µM) | MIC (S. pyogenes; read-out: Initial MIC, strain 2094 Macrolide-R [erm(A)], parent): 0.03 µg/mL (≈ 0.0369 µM) | MIC (S. pyogenes; read-out: Initial MIC, strain 2132 Macrolide-S, parent): 0.008 µg/mL (≈ 0.00985 µM) | MIC (S. pyogenes; read-out: MIC of parents of resistant clones, S. pyogenes): 0.03 to 8 µg/mL | MIC (S. pyogenes; read-out: Parental MICs, S. pyogenes, 5 strains with varying resistotypes): 0.03 to 8 µg/mL (≈ 0.0369 to 9.85 µM) | MIC (S. pyogenes; read-out: Selected Resistance (MIC), strain 237 Macrolide-R [LA mutation], after serial passages in the drug): 0.125 µg/mL (≈ 0.154 µM) | MIC (S. pyogenes; read-out: Selected Resistance (MIC), strain 2011 Macrolide-R [mef(A)], after serial passages in the drug): 1 µg/mL (≈ 1.23 µM) | MIC (S. pyogenes; read-out: Selected Resistance (MIC), strain 2094 Macrolide-R [erm(A)], after serial passages in the drug): 0.25 µg/mL (≈ 0.308 µM) | MIC (S. pyogenes; read-out: Selected Resistance (MIC), strain 2132 Macrolide-S, after serial passages in the drug): 0.03 µg/mL (≈ 0.0369 µM) | MIC (S. pyogenes; read-out: Selected Resistance (MIC), strain 2368 Macrolide-R [erm(B)], after serial passages in the drug): > 64 µg/mL | days until resistant clones (MIC increase) (S. pyogenes; daily passages, max. 50): 6 to 22 days | Retest MIC after 10 Antibioticfree Subcultures (S. pyogenes; strain 237 Macrolide-R [LA mutation], clone selected with CEM-101): 1 µg/mL | Retest MIC after 10 Antibioticfree Subcultures (S. pyogenes; strain 237 Macrolide-R [LA mutation], clone selected with CLN): 0.06 µg/mL | Retest MIC after 10 Antibioticfree Subcultures (S. pyogenes; strain 2011 Macrolide-R [mef(A)], clone selected with AZI): 0.25 µg/mL | Retest MIC after 10 Antibioticfree Subcultures (S. pyogenes; strain 2094 Macrolide-R [erm(A)], clone selected with AZI): 0.03 µg/mL | Retest MIC after 10 Antibioticfree Subcultures (S. pyogenes; strain 2094 Macrolide-R [erm(A)], clone selected with CEM-101): 0.5 µg/mL | Retest MIC after 10 Antibioticfree Subcultures (S. pyogenes; strain 2094 Macrolide-R [erm(A)], clone selected with CLN): 0.03 µg/mL | Retest MIC after 10 Antibioticfree Subcultures (S. pyogenes; strain 2094 Macrolide-R [erm(A)], clone selected with CLR): 0.03 µg/mL | Retest MIC after 10 Antibioticfree Subcultures (S. pyogenes; strain 2094 Macrolide-R [erm(A)], clone selected with TEL): 0.125 µg/mL | Retest MIC after 10 Antibioticfree Subcultures (S. pyogenes; strain 2132 Macrolide-S, clone selected with AZI): 0.03 µg/mL | Retest MIC after 10 Antibioticfree Subcultures (S. pyogenes; strain 2368 Macrolide-R [erm(B)], clone selected with CEM-101): >64 µg/mL | Retest MIC after 10 Antibioticfree Subcultures (S. pyogenes; strain 2368 Macrolide-R [erm(B)], clone selected with TEL): >64 µg/mL | MIC50 (M. pneumoniae): 0.00025 µg/mL (≈ 0.000308 µM) | MIC90 (M. pneumoniae): 0.001 µg/mL (≈ 0.00123 µM) | MIC 90% (S. pneumoniae [2]): 0.5 µg/mL (≈ 0.616 µM) | susceptible (S. pneumoniae [2]): 100.0% | MIC90 (S. pneumoniae [2]; Streptococcus pneumoniae): 1 µg/mL (≈ 1.23 µM) | Dose for 1 log10 Reduction from 24 hour controls (S. pneumoniae [3]; S. pneumoniae 1629): 11.0 mg/Kg | Dose for 3 log10 Reduction from 24 hour controls (S. pneumoniae [3]; S. pneumoniae 1629): 15.5 mg/Kg | Dose for 1 log10 Reduction from 24 hour controls (S. pneumoniae [3]; S. pneumoniae 6303): 4.75 mg/Kg | Dose for 2 log10 Reduction from 24 hour controls (S. pneumoniae [3]; S. pneumoniae 6303): 6.5 mg/Kg | Dose for 3 log10 Reduction from 24 hour controls (S. pneumoniae [3]; S. pneumoniae 6303): 8.75 mg/Kg | MIC (S. pneumoniae [4]; [6]): < 0.06 µg/mL | MIC (S. pneumoniae [4]; S. pneumoniae (mefR), read-out: MIC): 0.25 µg/mL | MIC (S. pneumoniae [4]; S. pneumoniae serotype 19A, read-out: MIC): 0.5 µg/mL | Mutant selection frequencies (S. pneumoniae [5]; at 2×MIC): 1.1×10^−9-1.3×10^−4 | Mutant selection frequencies (S. pneumoniae [5]; at 8×MIC): <1.5×10^−10-4.8×10^−6 | single step mutation frequency (S. pneumoniae [5]; strain 24 Macrolide-R [erm(B)], 2 × MIC): 1.3 × 10^−4 | single step mutation frequency (S. pneumoniae [5]; strain 24 Macrolide-R [erm(B)], 4 × MIC): 2.5 × 10^−6 | single step mutation frequency (S. pneumoniae [5]; strain 24 Macrolide-R [erm(B)], 8 × MIC): 1.7 × 10^−6 | single step mutation frequency (S. pneumoniae [5]; strain 1076 Macrolide-R [erm(B)&mef(A)], 2 × MIC): 6.5 × 10^−6 | single step mutation frequency (S. pneumoniae [5]; strain 1076 Macrolide-R [erm(B)&mef(A)], 4 × MIC): 9.7 × 10^−6 | single step mutation frequency (S. pneumoniae [5]; strain 1076 Macrolide-R [erm(B)&mef(A)], 8 × MIC): 4.8 × 10^−6
